# In patent US4169197A, “6-Deoxyneamines aminoglycoside compounds” (The Upjohn Company, priority 1978, dated 1979):
# Key:
# Type in all cases: cell-based
# B. cereus UC 3145 = assay: standard disc plate assay, zones of inhibition; conditions: Bacillus cereus, UC3145; 1 mg/ml; 12.5 mm paper discs; Table II; read-out: Zones of Inhibition
# Text: (§1) The compounds of formulas (V, VII, IX, XI, XIV, XVI, and XIX) are active as antibacterials and can be used in various environments to erradicate or control susceptible microorganisms. Tables I and II set forth the in vitro antibacterial test results for representative compounds of the present invention. The results were obtained with a standard disc plate assay using 12.5 mm paper discs.
# B. subtilis UC 564 = assay: standard disc plate assay, zones of inhibition; conditions: Bacillus subtilis, UC564, 12.5 mm paper discs, Table II, read-out: Zones of Inhibition
# Text: as §1
# E. coli UC 51 = assay: standard disc plate assay, zones of inhibition; conditions: Escherichia coli, UC51, 12.5 mm paper discs, Table II, read-out: Zones of Inhibition
# Text: as §1
# K. pneumoniae UC 57 = assay: standard disc plate assay, zones of inhibition; conditions: Klebsiella pneumoniae, UC57, 12.5 mm paper discs, Table II, read-out: Zones of Inhibition
# Text: as §1
# P. vulgaris UC 93 [1] = assay: standard disc plate assay, zones of inhibition; conditions: Proteus vulgaris, UC93; 1 mg/ml; 12.5 mm paper discs; Table II; read-out: Zones of Inhibition
# Text: as §1
# Ps. aeruginosa UC 95 [2] = assay: standard disc plate assay, zones of inhibition; conditions: Pseudomonas aeruginosa, UC95; 1 mg/ml; 12.5 mm paper discs; Table II; read-out: Zones of Inhibition
# Text: as §1
# S. aureus UC 80 = assay: standard disc plate assay, zones of inhibition; conditions: Staphylococcus aureus, UC80, 12.5 mm paper discs, Table II, read-out: Zones of Inhibition
# Text: as §1
# S. gallinarum UC 265 = assay: standard disc plate assay, zones of inhibition; conditions: Salmonella enterica, 12.5 mm paper discs, Table II, read-out: Zones of Inhibition
# Text: as §1
# S. lutea UC 130 = assay: standard disc plate assay, zones of inhibition; conditions: Micrococcus luteus, UC130; 1 mg/ml; 12.5 mm paper discs; Table II; read-out: Zones of Inhibition
# Text: as §1
# S. schottmuelleri UC 126 [3] = assay: standard disc plate assay, zones of inhibition; conditions: 1 mg/ml; 12.5 mm paper discs; Table II
# Text: as §1
# E. coli UC 45 = assay: standard microplate test in BHI Agar; conditions: Escherichia coli, UC45, 37°, 20 hours, Table III, read-out: Minimum Inhibitory Concentration
# Experimental: (§2) The compounds VII, XI, XVβ, XVα and XVI were tested in a standard microplate test in BHI (Brain Heart Infusion) Agar at a concentration of 1 mg./ml. and dilutions thereof at 37° incubation temperature. The end points are read out 20 hours. BHI Agar is supplied by Difco Laboratories, Detroit, Mich.
# K. pneumoniae UC 58 = assay: standard microplate test in BHI Agar; conditions: Klebsiella pneumoniae, UC58, 20 h, read-out: Minimum Inhibitory Concentration
# Experimental: as §2
# P. mirabilis UC 6671 = assay: standard microplate test in BHI Agar; conditions: Proteus mirabilis, UC6671, 20 h, read-out: Minimum Inhibitory Concentration
# Experimental: as §2
# P. morganii UC 3186 = assay: standard microplate test in BHI Agar; conditions: Morganella morganii, UC3186, 20 h, read-out: Minimum Inhibitory Concentration
# Experimental: as §2
# P. rettgeri UC 339 = assay: standard microplate test in BHI Agar; conditions: Providencia rettgeri, UC339, 20 h, read-out: Minimum Inhibitory Concentration
# Experimental: as §2
# P. vulgaris UC 93 [4] = assay: standard microplate test in BHI Agar; conditions: Proteus vulgaris, UC93, 20 h, read-out: Minimum Inhibitory Concentration
# Experimental: as §2
# Ps. aeruginosa UC 95 [5] = assay: standard microplate test in BHI Agar; conditions: Pseudomonas aeruginosa, UC95, 20 h, read-out: Minimum Inhibitory Concentration
# Experimental: as §2
# S. aureus UC 76 = assay: standard microplate test in BHI Agar; conditions: Staphylococcus aureus, UC76, 20 h, read-out: Minimum Inhibitory Concentration
# Experimental: as §2
# S. faecalis UC 694 = assay: standard microplate test in BHI Agar; conditions: Enterococcus faecalis, UC694, 20 h, read-out: Minimum Inhibitory Concentration
# Experimental: as §2
# S. flexneri UC 143 = assay: standard microplate test in BHI Agar; conditions: Shigella flexneri, UC143, 37°, 20 hours, Table III, read-out: Minimum Inhibitory Concentration
# Experimental: as §2
# S. marcescens UC 131 = assay: standard microplate test in BHI Agar; conditions: Serratia marcescens, UC131, 20 h, read-out: Minimum Inhibitory Concentration
# Experimental: as §2
# S. pneumoniae I UC 41 = assay: standard microplate test in BHI Agar; conditions: Streptococcus pneumoniae, UC41, 20 h, read-out: Minimum Inhibitory Concentration
# Experimental: as §2
# S. pyogenes UC 152 = assay: standard microplate test in BHI Agar; conditions: Streptococcus pyogenes, UC152, 20 h, read-out: Minimum Inhibitory Concentration
# Experimental: as §2
# S. schottmuelleri UC 126 [6] = assay: standard microplate test in BHI Agar; conditions: 37°, 20 hours, Table III, read-out: Minimum Inhibitory Concentration
# Experimental: as §2
# S. typhi UC 215 = assay: standard microplate test in BHI Agar; conditions: Salmonella enterica, 20 h, read-out: Minimum Inhibitory Concentration
# Experimental: as §2
compound,measurement,setting,value
"C[C@@]1(O)C[C@H](N)C[C@H](N)[C@H]1O[C@H]1O[C@H](CN)[C@@H](O)[C@H](O)[C@H]1N [6-deoxy-5-methylneamine (VII), 6-deoxy-5-methyl-neamine]",zone of inhibition at 1000 µg/mL,B. cereus UC 3145,23 mm
same,zone of inhibition at 100 µg/mL,B. subtilis UC 564; 0.1 mg/ml,26 mm
same,zone of inhibition at 1000 µg/mL,B. subtilis UC 564; 1 mg/ml,37 mm
same,zone of inhibition at 100 µg/mL,E. coli UC 51; 0.1 mg/ml,16 mm
same,zone of inhibition at 1000 µg/mL,E. coli UC 51; 1 mg/ml,24 mm
same,zone of inhibition at 100 µg/mL,K. pneumoniae UC 57; 0.1 mg/ml,22 mm
same,zone of inhibition at 1000 µg/mL,K. pneumoniae UC 57; 1 mg/ml,29 mm
same,zone of inhibition at 1000 µg/mL,P. vulgaris UC 93 [1],24 mm
same,zone of inhibition at 1000 µg/mL,Ps. aeruginosa UC 95 [2],15 mm
same,zone of inhibition at 100 µg/mL,S. aureus UC 80; 0.1 mg/ml,18 mm
same,zone of inhibition at 1000 µg/mL,S. aureus UC 80; 1 mg/ml,25 mm
same,zone of inhibition at 100 µg/mL,S. gallinarum UC 265; 0.1 mg/ml,18 mm
same,zone of inhibition at 1000 µg/mL,S. gallinarum UC 265; 1 mg/ml,28 mm
same,zone of inhibition at 1000 µg/mL,S. lutea UC 130,15 mm
same,zone of inhibition at 1000 µg/mL,S. schottmuelleri UC 126 [3],21 mm
same,MIC,E. coli UC 45,125 µg/mL
same,MIC,K. pneumoniae UC 58,15.6 µg/mL
same,MIC,P. mirabilis UC 6671,250 µg/mL
same,MIC,P. morganii UC 3186,125 µg/mL
same,MIC,P. rettgeri UC 339,> 500 µg/mL
same,MIC,P. vulgaris UC 93 [4],62.5 µg/mL
same,MIC,Ps. aeruginosa UC 95 [5],> 500 µg/mL
same,MIC,S. aureus UC 76,15.6 µg/mL
same,MIC,S. faecalis UC 694,> 500 µg/mL
same,MIC,S. flexneri UC 143,125 µg/mL
same,MIC,S. marcescens UC 131,125 µg/mL
same,MIC,S. pneumoniae I UC 41,62.5 µg/mL
same,MIC,S. pyogenes UC 152,7.8 µg/mL
same,MIC,S. schottmuelleri UC 126 [6],62.5 µg/mL
same,MIC,S. typhi UC 215,62.5 µg/mL
